What all share (assay type): biochemical
Assay [1] addresses T1, PI3Kβ (Homo sapiens, UniProt P42338).
T1 construct: His tag (C); made in house; host or cells: Tn5 insect cells, baculovirus BV949 (vector LR280)
The assay is described as follows: PI3K KinaseGlo assay, PI3Kbeta. The conditions noted are these: 25 nM enzyme, 1 μM ATP, 30 mins.

In assay [2] the target is T2, PI3Kγ (Homo sapiens, UniProt P48736, Q459R).
T2 construct: Constructs lacking the N-terminal 144 aa; His tag (C); made in house; host or cells: Tn5 insect cells, baculovirus BV950; construct from the Roger Williams lab (MRC LMB)
The assay is described as follows: PI3K KinaseGlo assay, PI3Kgamma. The conditions noted are these: 150 nM enzyme, 1 μM ATP, 90 mins.

Assay [3] has as its target T3, PI3Kδ (Homo sapiens, UniProt O00329).
T3 construct: His tag (C); made in house; host or cells: Tn5 insect cells, baculovirus BV1060 (vector LR415)
The assay is described as follows: PI3K KinaseGlo assay, PI3Kdelta. The conditions noted are these: 10 nM enzyme, 1 μM ATP, 30 mins.

Assay [4] has as its target T4, PI3Kα (Homo sapiens, UniProt P42336).
T4 construct: His tag (C); made in house; host or cells: Tn5 insect cells, baculovirus BV-1075
The assay is described as follows: PI3K KinaseGlo assay, PI3Kalpha. The conditions noted are these: 10 nM enzyme, 1 μM ATP, 30 mins. A general note: Kinase-Glo measures the ATP left after a reaction by luminescence.

T3 sequence (O00329 with tags, fused parts or gaps): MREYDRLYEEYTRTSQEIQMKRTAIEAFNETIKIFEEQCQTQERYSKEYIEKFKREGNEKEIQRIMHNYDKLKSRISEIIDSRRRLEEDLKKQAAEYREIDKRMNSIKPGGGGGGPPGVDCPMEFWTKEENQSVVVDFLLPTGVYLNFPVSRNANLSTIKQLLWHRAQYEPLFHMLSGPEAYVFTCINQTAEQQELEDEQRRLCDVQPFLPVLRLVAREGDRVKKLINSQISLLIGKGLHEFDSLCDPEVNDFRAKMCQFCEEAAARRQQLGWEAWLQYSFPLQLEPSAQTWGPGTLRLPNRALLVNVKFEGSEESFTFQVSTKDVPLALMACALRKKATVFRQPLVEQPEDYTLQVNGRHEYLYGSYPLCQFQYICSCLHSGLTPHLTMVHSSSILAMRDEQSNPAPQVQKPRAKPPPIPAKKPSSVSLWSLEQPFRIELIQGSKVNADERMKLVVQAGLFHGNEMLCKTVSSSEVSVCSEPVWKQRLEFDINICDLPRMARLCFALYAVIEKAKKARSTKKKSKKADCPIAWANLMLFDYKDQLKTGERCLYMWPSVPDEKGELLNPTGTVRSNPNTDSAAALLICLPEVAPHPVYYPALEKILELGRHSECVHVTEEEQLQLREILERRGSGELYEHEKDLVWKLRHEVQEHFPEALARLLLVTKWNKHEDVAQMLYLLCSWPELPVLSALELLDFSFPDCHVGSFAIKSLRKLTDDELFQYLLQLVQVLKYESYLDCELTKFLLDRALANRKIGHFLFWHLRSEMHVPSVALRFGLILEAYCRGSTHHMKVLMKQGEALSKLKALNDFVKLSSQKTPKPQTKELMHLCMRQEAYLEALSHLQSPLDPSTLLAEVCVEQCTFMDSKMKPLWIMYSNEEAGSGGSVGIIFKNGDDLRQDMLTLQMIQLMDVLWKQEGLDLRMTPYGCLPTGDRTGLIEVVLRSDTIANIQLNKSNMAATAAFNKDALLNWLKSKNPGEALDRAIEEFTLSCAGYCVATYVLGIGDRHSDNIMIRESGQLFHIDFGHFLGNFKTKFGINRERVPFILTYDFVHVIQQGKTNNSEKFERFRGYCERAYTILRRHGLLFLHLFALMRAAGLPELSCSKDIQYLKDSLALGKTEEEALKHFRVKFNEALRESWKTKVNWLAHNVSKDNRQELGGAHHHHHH
T2 sequence (P48736 with tags, fused parts or gaps Q459R): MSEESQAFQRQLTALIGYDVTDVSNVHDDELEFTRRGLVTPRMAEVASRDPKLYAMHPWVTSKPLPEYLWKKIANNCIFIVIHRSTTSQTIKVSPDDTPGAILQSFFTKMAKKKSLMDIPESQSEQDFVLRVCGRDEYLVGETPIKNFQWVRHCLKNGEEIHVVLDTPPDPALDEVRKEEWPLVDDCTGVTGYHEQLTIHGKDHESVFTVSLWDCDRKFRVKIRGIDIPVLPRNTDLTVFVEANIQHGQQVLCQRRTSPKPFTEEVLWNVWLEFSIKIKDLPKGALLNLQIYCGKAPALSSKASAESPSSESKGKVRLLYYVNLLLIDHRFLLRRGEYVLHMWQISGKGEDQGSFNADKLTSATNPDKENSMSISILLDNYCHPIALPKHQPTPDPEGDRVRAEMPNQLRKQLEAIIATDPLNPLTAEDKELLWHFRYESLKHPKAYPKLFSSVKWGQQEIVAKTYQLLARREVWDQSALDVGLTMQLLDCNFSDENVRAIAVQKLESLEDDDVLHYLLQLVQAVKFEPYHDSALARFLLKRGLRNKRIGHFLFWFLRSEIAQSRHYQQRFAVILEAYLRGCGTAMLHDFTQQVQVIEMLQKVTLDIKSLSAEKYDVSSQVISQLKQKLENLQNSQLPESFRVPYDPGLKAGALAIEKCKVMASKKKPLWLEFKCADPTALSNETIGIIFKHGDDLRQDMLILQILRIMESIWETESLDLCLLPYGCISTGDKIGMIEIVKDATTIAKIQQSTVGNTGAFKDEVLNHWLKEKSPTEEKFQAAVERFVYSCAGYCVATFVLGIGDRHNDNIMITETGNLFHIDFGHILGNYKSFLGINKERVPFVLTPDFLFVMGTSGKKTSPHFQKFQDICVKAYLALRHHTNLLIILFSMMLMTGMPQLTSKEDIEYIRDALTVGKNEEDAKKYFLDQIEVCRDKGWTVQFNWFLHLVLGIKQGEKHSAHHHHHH
T4 sequence (P42336 with tags, fused parts or gaps): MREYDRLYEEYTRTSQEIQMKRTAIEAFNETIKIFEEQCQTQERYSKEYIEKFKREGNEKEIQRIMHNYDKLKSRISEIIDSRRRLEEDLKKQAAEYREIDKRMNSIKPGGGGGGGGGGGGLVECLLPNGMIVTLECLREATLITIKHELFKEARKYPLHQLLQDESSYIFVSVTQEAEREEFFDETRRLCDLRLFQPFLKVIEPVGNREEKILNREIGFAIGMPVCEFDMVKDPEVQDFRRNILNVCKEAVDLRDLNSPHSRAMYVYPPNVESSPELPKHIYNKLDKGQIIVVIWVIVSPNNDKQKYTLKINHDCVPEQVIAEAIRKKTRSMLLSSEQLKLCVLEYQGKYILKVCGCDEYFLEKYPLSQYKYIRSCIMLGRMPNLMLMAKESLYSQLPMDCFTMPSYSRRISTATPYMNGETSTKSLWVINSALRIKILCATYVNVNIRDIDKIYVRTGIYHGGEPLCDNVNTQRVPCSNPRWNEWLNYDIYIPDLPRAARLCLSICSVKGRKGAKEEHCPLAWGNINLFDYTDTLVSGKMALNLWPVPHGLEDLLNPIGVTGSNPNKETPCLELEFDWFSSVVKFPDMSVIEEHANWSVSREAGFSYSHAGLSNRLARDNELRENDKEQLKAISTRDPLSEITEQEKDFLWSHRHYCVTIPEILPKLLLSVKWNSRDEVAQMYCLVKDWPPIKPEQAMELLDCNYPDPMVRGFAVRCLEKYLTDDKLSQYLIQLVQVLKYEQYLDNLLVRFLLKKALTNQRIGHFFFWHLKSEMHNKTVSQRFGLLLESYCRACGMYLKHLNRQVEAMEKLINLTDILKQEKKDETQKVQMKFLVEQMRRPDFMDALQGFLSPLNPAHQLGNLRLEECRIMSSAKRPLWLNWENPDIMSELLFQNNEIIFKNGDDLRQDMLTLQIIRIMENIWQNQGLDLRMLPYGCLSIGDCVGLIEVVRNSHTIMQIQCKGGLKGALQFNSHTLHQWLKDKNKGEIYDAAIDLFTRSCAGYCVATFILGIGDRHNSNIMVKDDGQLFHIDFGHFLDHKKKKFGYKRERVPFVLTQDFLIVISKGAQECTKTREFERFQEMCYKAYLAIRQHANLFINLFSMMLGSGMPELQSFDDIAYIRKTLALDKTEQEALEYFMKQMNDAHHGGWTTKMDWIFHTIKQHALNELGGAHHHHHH
T1 sequence (P42338 with tags, fused parts or gaps): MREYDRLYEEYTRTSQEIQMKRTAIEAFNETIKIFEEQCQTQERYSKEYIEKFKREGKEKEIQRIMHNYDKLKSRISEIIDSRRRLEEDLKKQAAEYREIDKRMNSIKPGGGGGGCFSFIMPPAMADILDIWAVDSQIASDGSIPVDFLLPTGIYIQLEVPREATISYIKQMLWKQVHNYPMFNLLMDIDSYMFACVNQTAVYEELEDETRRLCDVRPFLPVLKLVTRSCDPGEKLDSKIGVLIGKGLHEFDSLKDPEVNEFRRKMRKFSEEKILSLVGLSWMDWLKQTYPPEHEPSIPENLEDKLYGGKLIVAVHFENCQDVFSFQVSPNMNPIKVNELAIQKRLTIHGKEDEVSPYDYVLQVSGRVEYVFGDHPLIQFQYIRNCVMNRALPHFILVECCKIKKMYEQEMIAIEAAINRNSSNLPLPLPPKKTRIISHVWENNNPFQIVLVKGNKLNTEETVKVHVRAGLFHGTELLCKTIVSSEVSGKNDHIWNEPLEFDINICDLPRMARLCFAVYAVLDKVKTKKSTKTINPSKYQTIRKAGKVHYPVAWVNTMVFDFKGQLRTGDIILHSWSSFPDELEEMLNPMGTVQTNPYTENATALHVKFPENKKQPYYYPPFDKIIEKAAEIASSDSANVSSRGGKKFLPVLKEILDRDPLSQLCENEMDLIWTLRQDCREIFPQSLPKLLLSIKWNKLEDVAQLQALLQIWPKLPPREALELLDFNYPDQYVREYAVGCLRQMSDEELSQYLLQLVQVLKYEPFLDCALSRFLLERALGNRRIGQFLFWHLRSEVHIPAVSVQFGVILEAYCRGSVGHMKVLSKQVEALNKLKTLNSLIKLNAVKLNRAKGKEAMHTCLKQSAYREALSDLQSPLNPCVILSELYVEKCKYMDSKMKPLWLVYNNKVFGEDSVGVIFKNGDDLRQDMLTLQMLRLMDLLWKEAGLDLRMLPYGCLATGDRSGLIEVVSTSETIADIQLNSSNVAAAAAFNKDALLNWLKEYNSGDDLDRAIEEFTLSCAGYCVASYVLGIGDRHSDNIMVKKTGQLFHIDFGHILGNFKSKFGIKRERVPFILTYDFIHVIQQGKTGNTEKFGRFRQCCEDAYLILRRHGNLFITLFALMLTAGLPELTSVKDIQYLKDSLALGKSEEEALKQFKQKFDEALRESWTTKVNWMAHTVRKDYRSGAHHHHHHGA

Broadly, the IC50 is the concentration that gives 50% inhibition. Consider “(R)-2-Benzyl-pyrrolidine-1,2-dicarboxylic acid 2-amide 1-[(8-diethylamino-4,5-dihydro-thiazolo[4,5-h]quinazolin-2-yl)-amide] [Example 3]”, for which the IC50 came to 127 nM in assay [1], 1590 nM in assay [2], 740 nM in assay [3] and 45 nM in assay [4].
